In ChEMBL document CHEMBL4808238, “Small Molecule Inhibitors of KRAS Mutant as a Therapeutic Strategy for the Treatment of Cancer” (ACS Med Chem Lett, 2021) one finds IC50 data, which are given here for eleven compounds.

The target in the assay is GTPase KRas (Homo sapiens, UniProt P01116, G12C). In words: Inhibition of biotinylated KRAS G12C mutant (unknown origin) assessed as inhibition of SOS-catalyzed nucleotide exchange preincubated for 60 mins followed by addition of human recombinant SOS protein and unlabeled GTP and measured after 60 mins by TR-FRET analysis.
GTPase KRas, sequence (P01116 whole entry G12C): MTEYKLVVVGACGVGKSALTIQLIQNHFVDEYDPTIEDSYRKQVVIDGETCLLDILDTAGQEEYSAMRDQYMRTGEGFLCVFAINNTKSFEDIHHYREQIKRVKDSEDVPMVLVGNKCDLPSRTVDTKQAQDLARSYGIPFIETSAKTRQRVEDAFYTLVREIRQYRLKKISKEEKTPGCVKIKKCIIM

`C=CC(=O)N1CCN(c2cc(C(=O)NCC3CCCCN3)nc3c2CCN(c2cccc4cccc(C)c24)C3)C[C@@H]1CC#N` (stereo partly specified): the IC50 (in general, the point on the concentration scale where inhibition reaches its midpoint) was determined as 8.3 nM.

`C=CC(=O)N1CCN(c2cc(C(=O)NC3(CC)CCNC3)nc3c2CCN(c2cccc4cccc(C)c24)C3)C[C@@H]1CC#N` (stereo partly specified): the IC50 is 4.5 nM.

For `C=CC(=O)N1CCN(c2cc(C(=O)N[C@H](C)CN3CC(C)(O)C3)nc3c2CCN(c2cccc4cccc(C)c24)C3)C[C@@H]1CC#N`, the half-inhibitory concentration (IC50) was found to be 2.2 nM.

`C=C(F)C(=O)N1CCN(c2cc(C(=O)NC(C)CN3CCC(C)(O)C3)nc3c2CCN(c2cccc4cccc(C)c24)C3)C[C@@H]1CC#N` (stereo partly specified): the IC50 was 5 nM.

In the case of `C=CC(=O)N1CCN(c2cc(C(=O)NC(C)CN3CCC(C)(O)C3)nc3c2CCN(c2cccc4cccc(C)c24)C3)C[C@@H]1CC#N` (stereo in doubt; 76), the IC50 came out at 6.2 nM.

With `C=CC(=O)N1CCN(c2cc(C(=O)NC(C)CN3CCC(C)(O)C3)nc3c2CCN(c2cccc4cccc(C)c24)C3)C[C@@H]1CC#N` (stereo in doubt; 75), the IC50 is 7.2 nM.

In the case of `C=CC(=O)N1CCN(c2cc(C(=O)N[C@H](C)CN(C)C)nc3c2CCN(c2c(Cl)c(C)cc4[nH]ncc24)C3)C[C@@H]1CC#N`, the 50% inhibitory concentration (IC50) was 0.9 nM.

In the case of `C=C(F)C(=O)N1CCN(c2cc(C(=O)N[C@H](C)CN(C)C)nc3c2CCN(c2cccc4cccc(C)c24)C3)C[C@@H]1CC#N`, the IC50 was found to be 8.3 nM.

Take `C=CC(=O)N1CCN(c2cc(C(=O)NC[C@H]3CCCN3)nc3c2CCN(c2cccc4cccc(C)c24)C3)C[C@@H]1CC#N`: the IC50 came to 6.2 nM.

Consider `C=CC(=O)N1CCN(c2cc(C(=O)NC3(C)CCCNC3)nc3c2CCN(c2cccc4cccc(C)c24)C3)C[C@@H]1CC#N` (stereo partly specified), for which the IC50 worked out at 5.4 nM.

For the compound `C=CC(=O)N1CCN(c2cc(C(=O)N[C@@H]3CCC[C@H]3N(C)C)nc3c2CCN(c2cccc4cccc(C)c24)C3)C[C@@H]1CC#N`, the IC50 turned out to be 1 nM.
